Reference: the Deep4Chem optical property database

Test: solvent given as SMILES

`CCCC1(CCC)c2cc(-c3ccc(-c4ccc(OC)cc4)o3)ccc2-c2ccc(-c3ccc(-c4ccc(OC)cc4)o3)cc21` gave an emission maximum (in C1CCCCC1) of 425 nm.
`COc1ccc(C#Cc2ccc3ccc(=O)oc3c2)cc1` showed an emission maximum (in CC#N) of 465 nm.
In the case of `c1cc2cc(c1)c1ccc3ccc4ccc(cc4c3c1)c1ccc3ccc4ccc(cc4c3c1)c1cccc2c1`, the emission maximum (in Cc1ccccc1) is reported as 414 nm.
`CCCCCCCCCC1(CCCCCCCCC)c2cc(C#Cc3ccc(C#Cc4ccc(N(CCCCCC)CCCCCC)cc4)cc3)ccc2-c2ccc(C#Cc3ccc(C#Cc4ccc(N(CCCCCC)CCCCCC)cc4)cc3)cc21` showed an emission maximum (in Cc1ccccc1) of 433 nm.
For `C[Si]1(C)O[Si](C)(C)c2cc3cc4cc5c(cc4cc3cc21)C(=O)c1cc2cc3cc4c(cc3cc2cc1C5=O)[Si](C)(C)O[Si]4(C)C`, the emission maximum (in ClC(Cl)Cl) was 518 nm.
`C[N+]1=C(/C=C/C=C2/N(CCC[N+](C)(C)C)c3ccc(S(=O)(=O)[O-])cc3C2(C)C)C(C)(C)c2ccccc21` showed an emission maximum (in CS(C)=O) of 570 nm.
For `Cc1ccc(-n2c3ccccc3c3cc(C=C(C#N)C#N)ccc32)cc1`, the emission maximum (in C1CCOC1) was 454 nm, the emission maximum (in CC#N) was 516 nm and the emission maximum (in CC(C)=O) was 502 nm. For the same compound, the emission maximum (in CCOC(C)=O) was 474 nm, the emission maximum (in CO) was 519 nm and the emission maximum (in CS(C)=O) was 524 nm. The emission maximum (in Cc1ccccc1) was 454 nm and the emission maximum (in ClC(Cl)Cl) was 478 nm.
In the case of `O=[N+]([O-])c1ccc(/C2=C3N=C(C(c4ccccc4)=C/3c3ccccc3)/C(c3ccc([N+](=O)[O-])cc3)=c3\[nH]/c(c(-c4ccccc4)c3-c3ccccc3)=C(/c3ccc([N+](=O)[O-])cc3)C3=N/C(=C(/c4ccc([N+](=O)[O-])cc4)c4[nH]c2c(-c2ccccc2)c4-c2ccccc2)C(c2ccccc2)=C3c2ccccc2)cc1`, the emission maximum (in ClCCl) is reported as 745 nm.
Compound `CCc1cccc(CC)c1-c1c2ccccc2c(C#Cc2ccccc2)c2cc3ccccc3cc12` has an emission maximum (in ClCCl) of 538 nm.
Compound `COc1ccc(C#Cc2ccc3nc4ccc(C#Cc5ccc(OC)cc5)cn4c(=O)c3c2)cc1` has an emission maximum (in ClCCl) of 486 nm.
`CCN(CC)c1ccc2cc(-c3ccc(-c4c5ccccc5c(-c5ccc(-c6cc7ccc(N(CC)CC)cc7oc6=O)cc5)c5ccccc45)cc3)c(=O)oc2c1` showed an emission maximum (in ClC(Cl)Cl) of 472 nm.
Compound `CCCC(=O)c1c2c(c(C(=O)CCC)c3c1OC(CC(=O)OC)(C(=O)O)O3)OCO2` has an emission maximum (in CC#N) of 542 nm, an emission maximum (in CCO) of 603 nm and an emission maximum (in CO) of 614 nm. For the same compound, the emission maximum (in ClCCl) was 530 nm and the emission maximum (in O) was 637 nm.
Compound `COc1ccc(C2=C(c3ccc(-c4ccccc4)cc3)C(c3ccccc3)=[N+]3C2=Nc2c(-c4ccc(OC)cc4)c(-c4ccc(-c5ccccc5)cc4)c(-c4ccccc4)n2[B-]3(F)F)cc1` has an emission maximum (in Cc1ccccc1) of 716 nm.
With `CC1(C)c2ccccc2N(c2ccc(-c3ccc(C#N)cn3)cc2)c2ccccc21` the emission maximum (in Cc1ccccc1) was 504 nm and the emission maximum (in N#Cc1ccc2c(c1)c1ccccc1n2-c1cccc(-n2c3ccccc3c3ccccc32)c1) was 495 nm.
In the case of `CC[n+]1c(C=C2C(=O)C(C=C3Sc4cc(Cl)ccc4N3C)=C2[O-])[se]c2ccccc21`, the emission maximum (in CO) is reported as 674 nm and the emission maximum (in ClC(Cl)Cl) is reported as 699 nm.
Compound `CC(C)[Si]1(C(C)C)c2cc(C#N)ccc2-c2ccc(N(C)C)cc21` has an emission maximum (in C1CCCCC1) of 410 nm, an emission maximum (in CC#N) of 464 nm and an emission maximum (in CCO) of 456 nm. The emission maximum (in CCOCC) was 423 nm, the emission maximum (in CS(C)=O) was 473 nm and the emission maximum (in ClCCl) was 442 nm. It also gave an emission maximum (in c1ccccc1) of 422 nm.
With `Nc1cc2nc3cc(F)c(F)cc3nc2cc1N` the emission maximum (in CCO) was 537 nm.
Work on `CCC1=C(C)C2=C(c3c4ccccc4c(C)c4ccccc34)c3c(C)c(CC)c(C)n3[B-](F)(F)[N+]2=C1C` yielded an emission maximum (in CC#N) of 538 nm, an emission maximum (in CCCCCC) of 540 nm and an emission maximum (in CCO) of 538 nm. For the same compound, the emission maximum (in CN(C)C=O) was 540 nm, the emission maximum (in Cc1ccccc1) was 544 nm and the emission maximum (in ClCCl) was 543 nm.
For `N#Cc1nc(N(Cc2ccccc2I)Cc2ccccc2I)c(C#N)nc1N(Cc1ccccc1I)Cc1ccccc1I`, the emission maximum (in ClC(Cl)Cl) was 567 nm.
For `Cc1ccc(C2=C3C=CC4=[N+]3[P-](=O)(=O)n3c2ccc3-c2ccc([nH]2)/C(c2ccc(C)cc2)=c2/cc/c(o2)=C(\c2ccc(C)cc2)c2ccc4[nH]2)cc1`, the emission maximum (in ClC(Cl)Cl) was 714 nm.
`F[B-]1(F)OC(c2ccc(C(F)(F)F)cc2)=Cc2ccc3ccccc3[n+]21` gave an emission maximum (in ClC(Cl)Cl) of 434 nm.
`C1=C2c3cc4ccccc4cc3C3=[N+]2[B-]2(Oc4ccccc43)Oc3ccccc3-c3c4cc5ccccc5cc4c1n32` (centres undefined) gave an emission maximum (in C1CCOC1) of 832 nm.
Compound `CCCCCCN1C(=O)c2cccc3c(-c4ccc(C)s4)ccc(c23)C1=O` has an emission maximum (in ClC(Cl)Cl) of 482 nm.
`Cc1cc(=O)oc2cc(/[NH+]=C/C=C3/C=C(C(=O)O)NC(C(=O)O)C3)ccc12` (centres undefined) gave an emission maximum (in O) of 570 nm.
In the case of `COc1ccc(/C=C/c2ccc(/C=C/c3cc[n+]4ccc(/C=C/c5ccc(/C=C/c6ccc(OC)cc6)cc5)cc4c3)cc2)cc1`, the emission maximum (in CO) is reported as 620 nm.
`CC(C)(C)c1ccc(-c2nc(-c3ccc(C(C)(C)C)cc3)nc(-c3ccc(-n4c5ccccc5c5c6oc7ccccc7c6ccc54)c(C#N)c3)n2)cc1` showed an emission maximum (in C1CCOC1) of 450.74 nm.
For `CCCCC1=C(CCCC)c2cccc3c2c(cc2nc4ccccc4nc23)O1`, the emission maximum (in ClCCl) was 567 nm.
With `COc1cccc2cc(-c3ccc([N+](=O)[O-])cc3)c(=O)oc12` the emission maximum (in C1CCOC1) was 373 nm, the emission maximum (in CC#N) was 363 nm and the emission maximum (in CS(C)=O) was 385 nm. It also gave an emission maximum (in ClC(Cl)Cl) of 377 nm.
In the case of `COc1ccc(-c2nc(-c3ccccc3)c(N(c3ccccc3)c3ccccc3)s2)cc1`, the emission maximum (in ClC(Cl)Cl) is reported as 457 nm.
With `F[B-]1(F)Oc2ccccc2-c2n(-c3ccc(C(F)(F)F)cc3)c(-c3ccccc3)c(-c3ccccc3)[n+]21` the emission maximum (in C1CCOC1) was 390 nm.
For `COC(=O)c1ccc(/C=C2\N=C(c3ccc(OC)c(OC)c3)OC2=O)cc1`, the emission maximum (in C1COCCO1) was 474 nm.
In the case of `CC(C)(C)NC(=O)c1cccc2ccc3c4ccc(Cl)cc4c4cc(Cl)ccc4c3c12`, the emission maximum (in ClCCl) is reported as 415 nm.
Compound `c1ccc2c(c1)-c1ccccc1C21c2ccccc2-c2c1c1c3ccccc3ccc1c1ccccc21` has an emission maximum (in C1CCOC1) of 417 nm.
`COc1ccc2c3c(c4ccc(OC)cc4c2c1)C1(c2ccccc2-c2ccccc21)c1ccccc1-3` gave an emission maximum (in C1CCCCC1) of 389 nm.
In the case of `c1ccc(-c2nc3cc4c(cc3n2-c2ccccc2)nc(-c2ccccc2)n4-c2ccccc2)cc1`, the emission maximum (in CC#N) is reported as 397 nm.
With `CC1=CC(/C=C/c2ccc([N+](C)(C)C)cc2)=[N+]2C1=C(c1ccc(C#CCO[C@@H]3O[C@H](CO)[C@@H](O)C(O)[C@H]3O)cc1)c1c(C)cc(/C=C/c3ccc([N+](C)(C)C)cc3)n1[B-]2(F)F` (some centres undefined) the emission maximum (in CC#N) was 629 nm.
With `CC(C)[Si](C#Cc1c2cc3ccccc3cc2c(C#Cc2ccc(C(F)(F)F)cc2)c2cc3ccccc3cc12)(C(C)C)C(C)C` the emission maximum (in ClCCl) was 667 nm.
`CC[N+](CC)=c1ccc2cc3oc4cc(N)ccc4c3oc-2c1` gave an emission maximum (in CCO) of 629 nm, an emission maximum (in ClCCl) of 623 nm and an emission maximum (in O) of 627 nm.
With `CCCCOc1c(-c2ccc(C=O)cc2)cc2cc(-c3ccc(C=O)cc3)c(OCCCC)c3c4c(OCCCC)c(-c5ccc(C=O)cc5)cc5cc(-c6ccc(C=O)cc6)c(OCCCC)c(c1c23)c54` the emission maximum (in ClCCl) was 500 nm.
Work on `CN(C)c1ccc(C=C/C=C/C=C/c2ccc(C#N)cc2)cc1` yielded an emission maximum (in C1CCOC1) of 609 nm, an emission maximum (in CC#N) of 658 nm and an emission maximum (in CCCC#N) of 640 nm. The emission maximum (in CCCCCC) was 467 nm, the emission maximum (in CCCCOCCCC) was 541 nm and the emission maximum (in CCO) was 637 nm. The emission maximum (in CCOCC) was 567 nm.
`COCCC1=Cc2nc1ccc1[nH]c(cc1CCOC)c1nc(c(N)cc3[nH]c2cc3CCOC)C(CCOC)=C1` gave an emission maximum (in Cc1ccccc1) of 748 nm.
In the case of `OCCSc1cccc2[n+]1[B-](F)(F)n1c(c3cccc4cccc1c43)=N2`, the emission maximum (in C1CCOC1) is reported as 505 nm, the emission maximum (in CC#N) is reported as 502 nm and the emission maximum (in CCCCCC) is reported as 497 nm. The emission maximum (in Cc1ccccc1) was 505 nm and the emission maximum (in ClCCl) was 501 nm.
`CCCCCCCCOc1ccc(C2=C(c3ccc(OCCCCCCCC)cc3)C(C)(C)c3ccccc32)cc1` showed an emission maximum (in C1CCCCC1) of 390 nm.
`COc1cc2c(cc1F)c(=O)c1cc(F)c(OC)cc1n2-c1ccccc1` gave an emission maximum (in CCO) of 424 nm.
Work on `CC(C)c1cc(C(C)C)c(B2c3cc(-n4c5ccccc5c5ccccc54)ccc3N(c3ccccc3)c3ccc(-n4c5ccccc5c5ccccc54)cc32)c(C(C)C)c1` yielded an emission maximum (in C1CCOC1) of 442.52 nm, an emission maximum (in CCOC(C)=O) of 442.52 nm and an emission maximum (in Cc1ccccc1) of 442.52 nm. It also gave an emission maximum (in ClCCl) of 442.52 nm and an emission maximum (in c1cc(-c2cccc(-n3c4ccccc4c4ccccc43)c2)cc(-n2c3ccccc3c3ccccc32)c1) of 452 nm.
`CCC1(CC)c2cc(-c3ccc4c(c3)C(CC)(CC)c3cc(C(C)(C)C)ccc3-4)ccc2-c2ccc(-c3ccc4c(c3)C(CC)(CC)c3cc(C(C)(C)C)ccc3-4)cc21` showed an emission maximum (in CO) of 385.59 nm.
Compound `c1ccc2c(c1)Sc1ccccc1N2c1ccc2c(c1)C1(CCCC1)c1cc(N3c4ccccc4Sc4ccccc43)ccc1-2` has an emission maximum (in Cc1ccccc1) of 491 nm.
With `c1ccc(/C(=C(\c2ccccc2)c2cc(-c3ccc(-c4ccccc4)cc3)ccc2-c2ccc(-c3ccccc3)cc2)c2cc(-c3ccc(-c4ccccc4)cc3)ccc2-c2ccc(-c3ccccc3)cc2)cc1` the emission maximum (in C1CCOC1) was 496 nm.
Work on `C(=C\c1nc2ccccc2s1)/c1ccccc1` yielded an emission maximum (in C1CCCCC1) of 390 nm and an emission maximum (in CO) of 400 nm.
`CCCCc1cc2cccc[n+]2[b-]2c(-c3cccc4[b-]3[n+]3ccccc3cc4CCCC)cccc21` showed an emission maximum (in C1CCCCC1) of 451 nm.
`C(S/C=C/c1ccc(-c2ccc(/C=C/SC=C3CCCCCC3)cc2)cc1)=C1CCCCCC1` showed an emission maximum (in ClCCl) of 434 nm.
`c1ccc(-c2nc(-c3nc(-c4ccccc4)c(-c4ccccc4)o3)oc2-c2ccccc2)cc1` showed an emission maximum (in C1COCCO1) of 411 nm.
Compound `Cc1ccc(/C2=c3\cc/c(o3)=C(\c3ccc(C)cc3)c3ccc([nH]3)-c3ccc4n3[B-](F)(F)[N+]3=C(C=CC3=C4c3cccs3)c3ccc2[nH]3)cc1` has an emission maximum (in ClC(Cl)Cl) of 722 nm.
`Cc1cccc2nc3[nH]c(=O)[nH]c(=O)c3nc12` showed an emission maximum (in CC#N) of 452 nm.
`CC(C)[Si](C#Cc1c2ccccc2c(C#C[Si](C(C)C)(C(C)C)C(C)C)c2nc3c(nc12)C1c2ccccc2C3c2ccccc21)(C(C)C)C(C)C` gave an emission maximum (in CCCCCC) of 464 nm.
`COc1cc(/C=C/c2nc3ccccc3o2)c(OC)cc1/C=C/c1nc(C)nc(C)n1` showed an emission maximum (in C1CCOC1) of 483 nm, an emission maximum (in CC#N) of 495 nm and an emission maximum (in ClC(Cl)Cl) of 490 nm. For the same compound, the emission maximum (in ClCCl) was 492 nm.
In the case of `c1ccc(-n2c(-c3ccc(-n4c5ccccc5c5ccccc54)cc3)nc3nccnc32)cc1`, the emission maximum (in CC#N) is reported as 490 nm.
